Read-outs that look alike come from different tables or passages of the source.
Experiments:
[1] = system: LGKC 4301 cells; test: In vitro toxicity assay (MTS assay), mouse IPMN cell line LGKC 4301; assay type: cell-based; conditions: vs vehicle control
Procedure: (§1) Experiments were performed in technical triplicates. Statistical significance was determined by 2-sided Student T-test. […] UGT8 inhibitor UGT8-IN-1 or vehicle control (saline) was orally administrated every other day (3 mg/kg) from day-8 post cancer cell implantation for 2 weeks. Tumor volume was measured every 3 days. Statistical significance was determined by 2-way repeated measures ANOVA and treatment factor 2-sided p-value reported.
(§2) In vitro toxicity assays (MTS assays) were performed using three independent mouse IPMN cell lines (LGKC 4301, LGKC 4838, and LGKC 4861). Briefly, each cell line was treated with either vehicle control or the UGT8 inhibitors UGT8-IN-1 or zoledronic acid. Experiments were performed in technical triplicates. Statistical significance was determined by 2-sided Student T-test.

[2] = target: T1, UGT8 (Mus musculus, UniProt Q64676); conditions: cited from earlier work
T1 construct: host or cells: mouse (in vivo, endogenous enzyme)
T1 sequence (Q64676 21-541): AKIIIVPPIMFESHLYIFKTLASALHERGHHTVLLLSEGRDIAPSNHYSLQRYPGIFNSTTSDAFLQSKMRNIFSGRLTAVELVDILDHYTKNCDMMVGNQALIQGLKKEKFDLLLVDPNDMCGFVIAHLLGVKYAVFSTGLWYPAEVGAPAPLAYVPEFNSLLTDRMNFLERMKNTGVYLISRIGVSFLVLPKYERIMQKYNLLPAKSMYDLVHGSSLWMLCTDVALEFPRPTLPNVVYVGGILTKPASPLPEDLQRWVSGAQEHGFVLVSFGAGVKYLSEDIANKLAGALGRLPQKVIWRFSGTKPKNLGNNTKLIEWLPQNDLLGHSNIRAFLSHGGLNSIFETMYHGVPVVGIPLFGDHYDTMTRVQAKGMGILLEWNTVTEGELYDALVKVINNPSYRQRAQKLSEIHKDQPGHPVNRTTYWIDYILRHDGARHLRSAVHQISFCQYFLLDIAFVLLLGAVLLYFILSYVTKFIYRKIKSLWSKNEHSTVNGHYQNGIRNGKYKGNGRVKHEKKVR

[3] = system: mouse IPMN cell line LGKC 4861; test: Subcutaneous LGKC 4861 implant in athymic nude mice, tumor volume; assay type: in vivo; conditions: 3 mg/kg orally every other day from day 8 for 2 weeks, vs vehicle (saline)
[4] = In vitro toxicity assay (MTS assay), mouse IPMN cell line LGKC 4861; assay type: cell-based
Procedure: as §1, §2

[5] = system: LGKC 4838 cells; test: In vitro toxicity assay (MTS assay), mouse IPMN cell line LGKC 4838; assay type: cell-based; conditions: vs vehicle control
Procedure: as §1, §2

SMILES | effect on cell viability (comparison of the two UGT8 inhibitors) [1] | inhibition of incorporation of 13C-Gal into GalCer and sulfatide ([2]; 3 mg/kg) | effective dose (ED)50 ([2]; incorporation of 13C-Gal into GalCer and sulfatide) | tumor volume [3] | cytotoxicity [4] | reduction in cell viability (comparison of the two UGT8 inhibitors) [5] | cytotoxicity ([4]; LGKC 4861 mouse IPMN cells, LGKC 4861 cells, MTS assay, vs vehicle control, read-out: reduction in cell viability)
CNC(=O)c1csc2c(C(F)(F)F)cc(N3CCC(OC(=O)NC(C)COC(F)(F)F)CC3)nc12 (stereo in doubt) [UGT8-IN-1, [1-[3-(methylcarbamoyl)-7-(trifluoromethyl)thieno[3,2-b]pyridin-5-yl]piperidin-4-yl]N-[(2S)-1-(trifluoromethoxy)propan-2-yl]carbamate] | slightly more effective | > 90% | 1 mg/kg | lower tumor volume compared to vehicle | ~80% | – | –
O=P(O)(O)C(O)(Cn1ccnc1)P(=O)(O)O [zoledronic acid, Zoledronic acid] | performed similarly | – | – | – | – | greater reduction in cell viability than UGT8-IN-1 | ~55%
